Data from US8192962B2, “Processes for detecting toxic substances” (Daikin Industries, Ltd., priority 2001, dated 2012).

Test system: Unknown protein yeast genes
Assay: DNA chip mRNA expression in yeast, unknown protein yeast genes (Table 1)
Type: cell-based, Saccharomyces cerevisiae S288C
Description: Yeast (Saccharomyces cerevisiae S288C (α SUC2mal mel gap2 CUP1)) were incubated at 25° C. on YPD medium (yeast extract 1%, polypepton 2%, glucose 2%). One of toxic chemical substances was added to the cells at logarithmic growth phase, and the cells were further incubated for two hours. Cells were cultured without any chemical substance in the same condition, and were used as control. Concentrations of the chemical substances were defined to inhibit the growth of the yeast but not lead to death.
After completion of the incubation, the culture was centrifuged to collect the cells. To the cells, sodium acetate buffer (50 mM sodium acetate, 10 mM EDTA, 1% SDS) was added, and the mixture was shaken at 65° C. for five minutes, followed by returning to room temperature, and obtaining the supernatant, of which the procedures were repeated two times. To the supernatant, ½ amount of a solution of phenol/chloroform was added, and the mixture was centrifuged to give a supernatant, which was added with an equal amount of chloroform, and the mixture was centrifuged to give a supernatant. To the supernatant, an equal amount of isopropanol containing 0.3 M sodium acetate was added, and the mixture was allowed to stand at room temperature for 30 minutes, after which the mixture was centrifuged to give a sediment of the whole RNAs. Seventy % ethanol was added to the sediment, and the mixture was again centrifuged to give a sediment, which was then dried and dissolved in water. mRNA was isolated from the whole RNAs as followings. In view of the fact that a poly A chain is attached to the 3′ terminus of mRNA, a polynucleotide having a poly T structure which was immobilized on the surface of latex beads was used to trap the mRNA, and then the mRNA was washed and eluted with spine column (Oligotex-dT30<Super>mRNA Purification Kit, Takara). Reverse transcription of the mRNA was conducted with a reverse transcriptase (Super Script II Reverse Transcriptase; catalogue No. 18064-014, GibcoBRL) using fluorescence-labeled nucleotides to give cDNAs that were introduced with Cy3-dUTP or Cy5-dUTP during the reverse transcription.
The labeled cDNAs were dissolved in TE buffer (10mM Tris-HCl/1 mM EDTA, pH8.0), and the solution was dropped on the DNA chip containing the whole genes of yeast (DNA Chip Research Inc. Japan) so that the cDNAs were hybridized on the DNA chip at 65° C. for over 12 hours. The fluoresces intensity of the DNA chip was read with a scanner, and the ratio relative to the fluorescence intensity resulting from the absence of chemical substance was estimated as the following, which is shown in Tables 1 to 9: […]

In the case of `C=CC=O` [(14), acrolein], the “The level of expressed mRNA in the presence of chemical substance/The level of expressed mRNA in the absence of chemical substance” value (yeast gene YKL195W, incubated two hours with chemical substance) is reported as 1.6, the “The level of expressed mRNA in the presence of chemical substance/The level of expressed mRNA in the absence of chemical substance” value (yeast gene YKR091W, incubated two hours with chemical substance) is reported as 1.9 and the “The level of expressed mRNA in the presence of chemical substance/The level of expressed mRNA in the absence of chemical substance” value (yeast gene YLR054C, incubated two hours with chemical substance) is reported as 1.1. For the same molecule, the “The level of expressed mRNA in the presence of chemical substance/The level of expressed mRNA in the absence of chemical substance” value (yeast gene YLR149C, incubated two hours with chemical substance) was 1.2, the “The level of expressed mRNA in the presence of chemical substance/The level of expressed mRNA in the absence of chemical substance” value (yeast gene YLR152C, incubated two hours with chemical substance) was 1.2 and the “The level of expressed mRNA in the presence of chemical substance/The level of expressed mRNA in the absence of chemical substance” value (yeast gene YLR194C, incubated two hours with chemical substance) was 1.2. The “The level of expressed mRNA in the presence of chemical substance/The level of expressed mRNA in the absence of chemical substance” value (yeast gene YLR297W) was 2.3, the “The level of expressed mRNA in the presence of chemical substance/The level of expressed mRNA in the absence of chemical substance” value (yeast gene YLR324W, incubated two hours with chemical substance) was 1.4 and the “The level of expressed mRNA in the presence of chemical substance/The level of expressed mRNA in the absence of chemical substance” value (yeast gene YLR350W, incubated two hours with chemical substance) was 2.8. The “The level of expressed mRNA in the presence of chemical substance/The level of expressed mRNA in the absence of chemical substance” value (yeast gene YLR387C, incubated two hours with chemical substance) was 1.7, the “The level of expressed mRNA in the presence of chemical substance/The level of expressed mRNA in the absence of chemical substance” value (yeast gene YLR460C) was 3.5 and the “The level of expressed mRNA in the presence of chemical substance/The level of expressed mRNA in the absence of chemical substance” value (yeast gene YML117W, incubated two hours with chemical substance) was 0.8. The “The level of expressed mRNA in the presence of chemical substance/The level of expressed mRNA in the absence of chemical substance” value (yeast gene YMR009W, incubated two hours with chemical substance) was 1.9, the “The level of expressed mRNA in the presence of chemical substance/The level of expressed mRNA in the absence of chemical substance” value (yeast gene YMR067C, incubated two hours with chemical substance) was 1.5 and the “The level of expressed mRNA in the presence of chemical substance/The level of expressed mRNA in the absence of chemical substance” value (yeast gene YMR090W) was 6.5. For the same molecule, the “The level of expressed mRNA in the presence of chemical substance/The level of expressed mRNA in the absence of chemical substance” value (yeast gene YMR095C, incubated two hours with chemical substance) was 2.2, the “The level of expressed mRNA in the presence of chemical substance/The level of expressed mRNA in the absence of chemical substance” value (yeast gene YMR097C, incubated two hours with chemical substance) was 2.1 and the “The level of expressed mRNA in the presence of chemical substance/The level of expressed mRNA in the absence of chemical substance” value (yeast gene YMR102C, incubated two hours with chemical substance) was 0.7. The “The level of expressed mRNA in the presence of chemical substance/The level of expressed mRNA in the absence of chemical substance” value (yeast gene YMR107W, incubated two hours with chemical substance) was 8.1, the “The level of expressed mRNA in the presence of chemical substance/The level of expressed mRNA in the absence of chemical substance” value (yeast gene YMR180C, incubated two hours with chemical substance) was 1.7 and the “The level of expressed mRNA in the presence of chemical substance/The level of expressed mRNA in the absence of chemical substance” value (yeast gene YMR184W, incubated two hours with chemical substance) was 1.5. The “The level of expressed mRNA in the presence of chemical substance/The level of expressed mRNA in the absence of chemical substance” value (yeast gene YMR191W, incubated two hours with chemical substance) was 1.5, the “The level of expressed mRNA in the presence of chemical substance/The level of expressed mRNA in the absence of chemical substance” value (yeast gene YMR295C, incubated two hours with chemical substance) was 1.3 and the “The level of expressed mRNA in the presence of chemical substance/The level of expressed mRNA in the absence of chemical substance” value (yeast gene YMR316W, incubated two hours with chemical substance) was 1.3. For the same molecule, the “The level of expressed mRNA in the presence of chemical substance/The level of expressed mRNA in the absence of chemical substance” value (yeast gene YNL044W, incubated two hours with chemical substance) was 1.2, the “The level of expressed mRNA in the presence of chemical substance/The level of expressed mRNA in the absence of chemical substance” value (yeast gene YNL074C, incubated two hours with chemical substance) was 0.6 and the “The level of expressed mRNA in the presence of chemical substance/The level of expressed mRNA in the absence of chemical substance” value (yeast gene YNL092W, incubated two hours with chemical substance) was 1.2. For the same molecule, the “The level of expressed mRNA in the presence of chemical substance/The level of expressed mRNA in the absence of chemical substance” value (yeast gene YNL115C, incubated two hours with chemical substance) was 1.0, the “The level of expressed mRNA in the presence of chemical substance/The level of expressed mRNA in the absence of chemical substance” value (yeast gene YNL156C, incubated two hours with chemical substance) was 1.4 and the “The level of expressed mRNA in the presence of chemical substance/The level of expressed mRNA in the absence of chemical substance” value (yeast gene YNL234W, incubated two hours with chemical substance) was 1.5. For the same molecule, the “The level of expressed mRNA in the presence of chemical substance/The level of expressed mRNA in the absence of chemical substance” value (yeast gene YNL281W, incubated two hours with chemical substance) was 1.2, the “The level of expressed mRNA in the presence of chemical substance/The level of expressed mRNA in the absence of chemical substance” value (yeast gene YNL305C, incubated two hours with chemical substance) was 1.3 and the “The level of expressed mRNA in the presence of chemical substance/The level of expressed mRNA in the absence of chemical substance” value (yeast gene YNR068C, incubated two hours with chemical substance) was 1.8. The “The level of expressed mRNA in the presence of chemical substance/The level of expressed mRNA in the absence of chemical substance” value (yeast gene YOL032W, incubated two hours with chemical substance) was 1.3, the “The level of expressed mRNA in the presence of chemical substance/The level of expressed mRNA in the absence of chemical substance” value (yeast gene YOL036W, incubated two hours with chemical substance) was 1.0 and the “The level of expressed mRNA in the presence of chemical substance/The level of expressed mRNA in the absence of chemical substance” value (yeast gene YOL047C, incubated two hours with chemical substance) was 1.2. For the same molecule, the “The level of expressed mRNA in the presence of chemical substance/The level of expressed mRNA in the absence of chemical substance” value (yeast gene YOL071W, incubated two hours with chemical substance) was 2.5, the “The level of expressed mRNA in the presence of chemical substance/The level of expressed mRNA in the absence of chemical substance” value (yeast gene YOL082W, incubated two hours with chemical substance) was 1.4 and the “The level of expressed mRNA in the presence of chemical substance/The level of expressed mRNA in the absence of chemical substance” value (yeast gene YOL083W, incubated two hours with chemical substance) was 1.4. For the same molecule, the “The level of expressed mRNA in the presence of chemical substance/The level of expressed mRNA in the absence of chemical substance” value (yeast gene YOL117W, incubated two hours with chemical substance) was 1.7, the “The level of expressed mRNA in the presence of chemical substance/The level of expressed mRNA in the absence of chemical substance” value (yeast gene YOL131W, incubated two hours with chemical substance) was 2.3 and the “The level of expressed mRNA in the presence of chemical substance/The level of expressed mRNA in the absence of chemical substance” value (yeast gene YOL150C) was 5.7. The “The level of expressed mRNA in the presence of chemical substance/The level of expressed mRNA in the absence of chemical substance” value (yeast gene YOL162W, incubated two hours with chemical substance) was 1.4, the “The level of expressed mRNA in the presence of chemical substance/The level of expressed mRNA in the absence of chemical substance” value (yeast gene YOR019W, incubated two hours with chemical substance) was 1.4 and the “The level of expressed mRNA in the presence of chemical substance/The level of expressed mRNA in the absence of chemical substance” value (yeast gene YOR197W, incubated two hours with chemical substance) was 0.7. For the same molecule, the “The level of expressed mRNA in the presence of chemical substance/The level of expressed mRNA in the absence of chemical substance” value (yeast gene YPL087W, incubated two hours with chemical substance) was 1.2, the “The level of expressed mRNA in the presence of chemical substance/The level of expressed mRNA in the absence of chemical substance” value (yeast gene YPL196W, incubated two hours with chemical substance) was 1.6 and the “The level of expressed mRNA in the presence of chemical substance/The level of expressed mRNA in the absence of chemical substance” value (yeast gene YPL206C, incubated two hours with chemical substance) was 1.1. The “The level of expressed mRNA in the presence of chemical substance/The level of expressed mRNA in the absence of chemical substance” value (yeast gene YPL222W, incubated two hours with chemical substance) was 1.1, the “The level of expressed mRNA in the presence of chemical substance/The level of expressed mRNA in the absence of chemical substance” value (yeast gene YPR023C, incubated two hours with chemical substance) was 0.9 and the “The level of expressed mRNA in the presence of chemical substance/The level of expressed mRNA in the absence of chemical substance” value (yeast gene YPR151C, incubated two hours with chemical substance) was 1.4.
